The source of these data is patent US10052359B2, “Composition for enhancing memory and learning function and/or cognitive function” (KIRIN KABUSHIKI KAISHA, priority 2014, dated 2018).

“Also recorded” adds a separate entry of the source.

The test system of one test is TNF-α. Nature of the test: Anti-inflammatory activity of isolated microglia (TNF-α in supernatant by ELISA after LPS and IFNγ). It counts as cell-based, mouse. The note with it: 12 h pretreatment with 0, 25, 50 or 100 μM synthetic peptide; then LPS 5 ng/ml and IFNγ 0.5 ng/ml for 12 h; FIG. 11. The method, then:
Brain tissue homogenate is obtained by treating the brain extirpated from a mouse with papain. After stopping the enzymatic reaction, microglia were allowed to interact with a pan-microglia marker, CD11b antibody (produced from Miltenyi Biotec) magnetically-labeled with microbeads and isolated by the MACS method.
Isolated microglia are cultured for 12 hours in a medium supplemented with various peptides. 5 ng/ml lipopolysaccharide (LPS, SIGMA-ALDRICH) and 0.5 ng/ml interferon γ(IFNγ, R & D systems) were then added and culture was continued for 12 hours. TNF-α contained in the culture supernatant was quantified with an ELISA kit (eBiosceince).
Peptides were synthesized based on the obtained amino acid sequences and the anti-inflammatory effect was evaluated. The isolated microglia are pretreated in a medium supplemented with 0, 25, 50, or 100 μM of a synthetic peptide ([…] (SEQ ID NO: 1), […] (SEQ ID NO: 17), AVPYP (SEQ ID NO: 6), SLPQ (SEQ ID NO: 9), YPE (SEQ ID NO: 12), WM (SEQ ID NO: 14), or WY (SEQ In NO: 13)) for 12 hours. As described above, LPS and IFN-γ were added to the medium and culture was continued for 12 hours. INF-α contained in the culture supernatant was measured by ELISA. The result is illustrated in FIG. 11. In FIG. 11, “CM1” indicates the result of […] (SEQ ID NO: 1), “CM2” indicates the result of […] […]
Background: ELISA stands for enzyme-linked immunosorbent assay.
Take tryptophan-tyrosine [WY]: the “production of TNF-α (anti-inflammatory effect)” value is “particularly high anti-inflammatory effect”.

A further test deals with scopolamine model of poor memory. In words: Y-maze test (spontaneous alternation behavior) in mice given scopolamine. It counts as in vivo. Conditions: 1 μmol/kg to mice; FIG. 9A, 9B. As to the method: FIG. 1A illustrates a summary of methods of evaluating the memory and learning function and the cognitive function. To 6-week-old male CD-1 mice, 1 mg/kg of the peptide extract or 0.1-3 μmol/kg of a synthetic peptide is orally administered forcibly into stomach and 40 minutes later 0.80 mg/kg of scopolamine hydrochloride was administered intraperitoneally to cause memory impairment. 20 minutes after the intraperitoneal administration of scopolamine, the Y-maze test was conducted to evaluate the spontaneous alternation behavior.
Mice originally have a habit of selecting a route different from the route selected immediately before. Therefore a mouse placed in a Y-maze having 3 arms equivalent in width, length, and the like normally enters the arm different from the arm that the mouse entered immediately before. The Y-maze test is a test to evaluate the short-term memory using the habit of mice.
In the Y-maze test, a Y-maze was used as an experimental apparatus having 3 arms each connected at an angle of 120 degrees and each having a length of 25 cm, a wall high of 20 cm, and a floor width of 5 cm.
Mice were placed in the tip of one of the aims in the Y-maze and the orders of the arms that the mice entered when the mice were allowed to search freely for 8 minutes were recorded. The spontaneous alternation behavior is defined as the behavior in which a mouse selects and enters the different arm three times consecutively. […] 10 mice per group were used for the experiment and the average and the standard error were determined. [Examination of Enzymatic Agent]
With PVEP (listed as Bos taurus), the “enhancing effect on the memory and learning function” value is “had the enhancing effect on the memory and learning function at the similar level to that of the original amino acid sequence KEMPFPKYPVEP”.

Staying with this test, now noted: synthetic peptide 0.1-3 μmol/kg orally; scopolamine 0.80 mg/kg i.p.
With “AVPYP (listed as Bos taurus) [casein-derived peptide, tested as synthetic peptide]”, the “enhancing effect on the memory and learning function and the cognitive function (spontaneous alternation behavior rate)” value is “enhancement activity on the memory and learning function and the cognitive function”. The same measure, in the same setting: to “SLPQ (listed as Bos taurus) [casein-derived peptide, tested as synthetic peptide]” belongs “enhancement activity on the memory and learning function and the cognitive function”.

For tryptophan-methionine [WM], the “enhancing effect on the memory and learning function and the cognitive function (spontaneous alternation behavior rate)” value was “found to have an enhancing effect on the memory and learning function and the cognition function in a concentration-dependent manner; also recorded: enhancement activity on the memory and learning function and the cognitive function”. “TWYS (listed as Bos taurus) [whey-derived peptide, tested as synthetic peptide]”: the “enhancing effect on the memory and learning function and the cognitive function (spontaneous alternation behavior rate)” value is “exhibited the activity of enhancing the memory and learning function and the cognitive function in a concentration-dependent manner”. On the same count and under the same terms, the result for “methionine-tryptophan [MW, reference compound]” reads “had no enhancing effect on the memory and learning function and the cognitive function”; that for “tyrosine-tryptophan [YW, reference compound]”, “had no enhancing effect on the memory and learning function and the cognitive function”. The same measure, in the same setting: the result for “VAGTWYS (listed as Bos taurus) [whey-derived peptide, tested as synthetic peptide]” reads “exhibited the activity of enhancing the memory and learning function and the cognitive function in a concentration-dependent manner”; that for `N[C@@H](Cc1c[nH]c2ccccc12)C(=O)O` [W, tryptophan, reference compound], “had no effects”.

Turning to “YPE (listed as Bos taurus) [casein-derived peptide, tested as synthetic peptide]”, the “enhancing effect on the memory and learning function and the cognitive function (spontaneous alternation behavior rate)” value was “enhancement activity on the memory and learning function and the cognitive function”.

With “VSLPEW (listed as Bos taurus) [whey-derived peptide, tested as synthetic peptide]”, the “enhancing effect on the memory and learning function and the cognitive function (spontaneous alternation behavior rate)” value was “exhibited the activity of enhancing the memory and learning function and the cognitive function in a concentration-dependent manner”.

As for “KPTPEGDLEI (listed as Bos taurus) [whey-derived peptide, tested as synthetic peptide]”, the “enhancing effect on the memory and learning function and the cognitive function (spontaneous alternation behavior rate)” value is “exhibited the activity of enhancing the memory and learning function and the cognitive function in a concentration-dependent manner”.

Consider “GTWY (listed as Bos taurus) [whey-derived peptide, tested as synthetic peptide]”, for which the “enhancing effect on the memory and learning function and the cognitive function (spontaneous alternation behavior rate)” value is “exhibited the activity of enhancing the memory and learning function and the cognitive function in a concentration-dependent manner”. In the case of “TWY (listed as Bos taurus) [whey-derived peptide, tested as synthetic peptide]”, the “enhancing effect on the memory and learning function and the cognitive function (spontaneous alternation behavior rate)” value is “exhibited the activity of enhancing the memory and learning function and the cognitive function in a concentration-dependent manner”. The same measure, in the same setting: to “GYGGVSLP (listed as Bos taurus) [whey-derived peptide, tested as synthetic peptide]” belongs “exhibited the activity of enhancing the memory and learning function and the cognitive function in a concentration-dependent manner”; to tryptophan-tyrosine [WY], “found to have an enhancing effect on the memory and learning function and the cognition function in a concentration-dependent manner; also recorded: enhancement activity on the memory and learning function and the cognitive function”. Same read-out and setting: the result for “KEMPFPKYPVEP (listed as Bos taurus) [casein-derived peptide of 12 amino acids, tested as synthetic peptide]” reads “enhancement activity on the memory and learning function and the cognitive function”.
